These molecules were tested against T1, human Glu-plasminogen (Homo sapiens, UniProt P00747) (assay: Clot-lysis buffer assay).
T1 construct: human Glu-plasminogen; purchased Chromogenix, Italy
Assay type: biochemical
Experimental: The assay method used for evaluating biological activity of the compounds according to the invention was Clot-lysis buffer assay.
Tested substance were added to the reaction mixture in 10% DMSO. Reaction was started by the addition of thrombin.
Measured according to the Clot-lysis buffer assay described above.

T1 sequence (P00747 20-810 limits assumed): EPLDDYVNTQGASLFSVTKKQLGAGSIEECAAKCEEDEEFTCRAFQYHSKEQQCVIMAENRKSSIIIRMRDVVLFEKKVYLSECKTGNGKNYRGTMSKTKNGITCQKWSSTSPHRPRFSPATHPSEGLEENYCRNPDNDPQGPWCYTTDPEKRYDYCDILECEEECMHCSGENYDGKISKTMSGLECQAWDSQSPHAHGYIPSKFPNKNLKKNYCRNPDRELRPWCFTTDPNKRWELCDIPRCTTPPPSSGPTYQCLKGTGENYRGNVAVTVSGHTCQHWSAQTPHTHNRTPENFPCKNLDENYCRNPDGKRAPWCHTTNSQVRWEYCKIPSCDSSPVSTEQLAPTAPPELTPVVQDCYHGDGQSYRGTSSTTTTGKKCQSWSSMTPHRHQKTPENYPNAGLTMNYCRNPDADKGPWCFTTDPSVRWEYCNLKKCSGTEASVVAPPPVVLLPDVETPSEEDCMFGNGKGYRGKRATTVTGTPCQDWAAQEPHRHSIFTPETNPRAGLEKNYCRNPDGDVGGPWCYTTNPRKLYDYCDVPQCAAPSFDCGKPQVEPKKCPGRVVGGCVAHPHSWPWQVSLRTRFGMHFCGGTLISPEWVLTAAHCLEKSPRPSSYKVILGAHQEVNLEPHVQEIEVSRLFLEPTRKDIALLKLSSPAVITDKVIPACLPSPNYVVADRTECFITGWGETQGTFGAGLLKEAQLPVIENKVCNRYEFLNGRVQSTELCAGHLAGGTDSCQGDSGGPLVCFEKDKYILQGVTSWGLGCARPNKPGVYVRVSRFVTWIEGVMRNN

Compared with `O=c1cc([C@@H]2CCN[C@@H](Cc3ccc(F)cc3F)C2)o[nH]1` (relative stereo) [Example 136, 5-(Trans-2-(2,4-difluorobenzyl)piperidin-4-yl)isoxazol-3(2H)-one], `O=c1cc([C@@H]2CCN[C@H](Cc3ccc(F)cc3F)C2)o[nH]1` [Example 135, 5-((2S,4R)-2-(2,4-Difluorobenzyl)piperidin-4-yl)isoxazol-3(2H)-one] is 14-fold higher in IC50: 4.94 µM for the first, 69.1 µM for the second. The first is the more potent here.

Going from `O=c1cc([C@H]2CCN[C@H](c3ccccc3)C2)o[nH]1` [Example 78] to `O=c1cc([C@H]2CCN[C@@H](c3ccccc3)C2)o[nH]1` [Example 77, 5-((2R,4S)-2-Phenylpiperidin-4-yl)isoxazol-3(2H)-one], the IC50 falls from 64.2 µM to 8 µM (8-fold).

Going from `O=c1cc([C@@H]2CCN[C@H](c3ccc(C(F)(F)F)cc3)C2)o[nH]1` [Example 34, 5-((2S,4R)-2-(4-(Trifluoromethyl)phenyl)piperidin-4-yl)isoxazol-3(2H)-one] to `O=c1cc([C@H]2CCN[C@@H](c3cccc(C(F)(F)F)c3)C2)o[nH]1` [Example 30, 5-((2R,4S)-2-(3-(Trifluoromethyl)phenyl)piperidin-4-yl)isoxazol-3(2H)-one], the IC50 falls from 150 µM to 0.7 µM (210-fold).

Going from `O=c1cc([C@H]2CCN[C@@H](c3ccc(F)cc3F)C2)o[nH]1` [Example 44, 5-((2R,4S)-2-(2,4-Difluorophenyl)piperidin-4-yl)isoxazol-3(2H)-one] to `O=c1cc([C@H]2CCN[C@@H](c3ccc(F)cc3Cl)C2)o[nH]1` [Example 47, 5-((2R,4S)-2-(2-Chloro-4-fluorophenyl)piperidin-4-yl)isoxazol-3(2H)-one], the IC50 falls from 2.3 µM to 1.4 µM (1.6-fold). The second is the more potent here.

Going from `O=c1cc([C@@H]2CCN[C@@H](c3ccc(C(F)(F)F)nc3)C2)o[nH]1` (relative stereo) [Example 41, 5-(Trans-2-(6-(trifluoromethyl)pyridin-3-yl)piperidin-4-yl)isoxazol-3(2H)-one] to `Cc1cc([C@H]2C[C@@H](c3cc(=O)[nH]o3)CCN2)ccc1C(F)(F)F` [Example 67, 5-((2R,4S)-2-(3-Methyl-4-(trifluoromethyl)phenyl)piperidin-4-yl)isoxazol-3(2H)-one], the IC50 falls from 40.9 µM to 1.3 µM (31-fold).

First: O=c1cc([C@H]2CCN[C@H](c3ccc(Cl)cc3Cl)C2)o[nH]1 [Example 53, 5-((2S,4S)-2-(2,4-Dichlorophenyl)piperidin-4-yl)isoxazol-3(2H)-one]
Second: O=c1cc([C@@H]2CCN[C@@H](c3ccc(Cl)cc3Cl)C2)o[nH]1 [Example 54, 5-((2R,4R)-2-(2,4-Dichlorophenyl)piperidin-4-yl)isoxazol-3(2H)-one]
The IC50 of the first is 5.1-fold lower: 72.9 µM for the first, 372 µM for the second.

First: O=c1cc([C@@H]2CCN[C@@H](Cc3cccc(C(F)(F)F)c3)C2)o[nH]1 (relative stereo) [Example 109, 5-(Trans-2-(3-(trifluoromethyl)benzyl)piperidin-4-yl)isoxazol-3(2H)-one]
Second: O=c1cc([C@H]2CCN[C@@H](Cc3ccc(C(F)(F)F)cc3)C2)o[nH]1 [Example 104, 5-((2R,4S)-2-(4-(Trifluoromethyl)benzyl)piperidin-4-yl)isoxazol-3(2H)-one]
The IC50 of the first is 3.3-fold higher: 5 µM for the first, 1.5 µM for the second.

Going from `O=c1cc([C@@H]2CCN[C@H](CC3CCC(F)(F)CC3)C2)o[nH]1` [Example 90, 5-((2R,4R)-2-((4,4-Difluorocyclohexyl)methyl)piperidin-4-yl)isoxazol-3(2H)-one] to `O=c1cc([C@@H]2CCN[C@@H](CC3CCC(F)(F)CC3)C2)o[nH]1` (relative stereo) [Example 91, 5-(Trans-2-((4,4-difluorocyclohexyl)methyl)piperidin-4-yl)isoxazol-3(2H)-one], the IC50 falls from 102 µM to 5.9 µM (17-fold).

First: CC(C)(C)c1ccc([C@H]2C[C@@H](c3cc(=O)[nH]o3)CCN2)s1 [Example 42, 5-((2R,4S)-2-(5-tert-Butylthiophen-2-yl)piperidin-4-yl)isoxazol-3(2H)-one]
Second: O=c1cc([C@H]2CCN[C@@H](c3ccc(F)c(F)c3)C2)o[nH]1 [Example 23, 5-((2R,4S)-2-(3,4-Difluorophenyl)piperidin-4-yl)isoxazol-3(2H)-one]
The IC50 of the first is 35-fold higher: 34.9 µM for the first, 1 µM for the second.

First: O=c1cc([C@H]2CCN[C@@H](Cc3cc(F)cc(C(F)(F)F)c3)C2)o[nH]1 [Example 137, 5-((2R,4S)-2-(3-Fluoro-5-(trifluoromethyl)benzyl)piperidin-4-yl)isoxazol-3(2H)-one]
Second: O=c1cc([C@@H]2CCN[C@H](Cc3cc(F)cc(C(F)(F)F)c3)C2)o[nH]1 [Example 138, 5-((2S,4R)-2-(3-Fluoro-5-(trifluoromethyl)benzyl)piperidin-4-yl)isoxazol-3(2H)-one]
The IC50 of the first is 120-fold lower: 1 µM for the first, 123 µM for the second. The first is the more potent here.

Compared with `O=c1cc([C@H]2CCN[C@@H](c3cc(Cl)cc(Cl)c3)C2)o[nH]1` [Example 55, 5-((2R,4S)-2-(3,5-Dichlorophenyl)piperidin-4-yl)isoxazol-3(2H)-one], `O=c1cc([C@@H]2CCN[C@@H](c3cc(Cl)cc(Cl)c3)C2)o[nH]1` (relative stereo) [Example 57, 5-(Trans-2-(3,5-dichlorophenyl)piperidin-4-yl)isoxazol-3(2H)-one] is 67-fold higher in IC50: 0.6 µM for the first, 40 µM for the second.

Compared with `O=c1cc([C@@H]2CCN[C@H](Cc3ccc(C(F)(F)F)c(F)c3)C2)o[nH]1` [Example 141, 5-((2S,4R)-2-(3-Fluoro-4-(trifluoromethyl)benzyl)piperidin-4-yl)isoxazol-3(2H)-one], `O=c1cc([C@H]2CCN[C@@H](Cc3ccc(C(F)(F)F)c(F)c3)C2)o[nH]1` [Example 140, 5-((2R,4S)-2-(3-Fluoro-4-(trifluoromethyl)benzyl)piperidin-4-yl)isoxazol-3(2H)-one] is 120-fold lower in IC50: 69.5 µM for the first, 0.6 µM for the second. The second is the more potent here.

`O=c1cc([C@@H]2CCN[C@@H](Cc3cc(F)ccc3F)C2)o[nH]1` (relative stereo) [Example 126, 5-(Trans-2-(2,5-difluorobenzyl)piperidin-4-yl)isoxazol-3(2H)-one] and `O=c1cc([C@H]2CCN[C@H](Cc3ccc(F)c(F)c3)C2)o[nH]1` [Example 122, 5-((2S,4S)-2-(3,4-Difluorobenzyl)piperidin-4-yl)isoxazol-3(2H)-one] are within 1.5-fold of each other in IC50: 3.6 µM for the first, 4.4 µM for the second.

Compared with `CC(C)(C[C@@H]1C[C@@H](c2cc(=O)[nH]o2)CCN1)c1ccccc1` [Example 18, 5-((2S,4S)-2-(2-Methyl-2-phenylpropyl)piperidin-4-yl)isoxazol-3(2H)-one], `O=c1cc([C@@H]2CCN[C@H](Cc3ccccc3C(F)(F)F)C2)o[nH]1` [Example 111, 5-((2S,4R)-2-(2-(trifluoromethyl)benzyl)piperidin-4-yl)isoxazol-3(2H)-one] is 20-fold higher in IC50: 1.6 µM for the first, 31.3 µM for the second.

Compared with `O=c1cc([C@@H]2CCN[C@@H](c3ccc(C(F)(F)F)cc3F)C2)o[nH]1` (relative stereo) [Example 74, 5-(Trans-2-(2-fluoro-4-(trifluoromethyl)phenyl)piperidin-4-yl)isoxazol-3(2H)-one], `O=c1cc([C@@H]2CCN[C@@H](c3cc(F)c(C(F)(F)F)c(F)c3)C2)o[nH]1` (relative stereo) [Example 71, 5-(Trans-2-(3,5-difluoro-4-(trifluoromethyl)phenyl)piperidin-4-yl)isoxazol-3(2H)-one] is 4.5-fold lower in IC50: 52.2 µM for the first, 11.6 µM for the second.

Compared with `O=c1cc([C@@H]2CCN[C@@H](Cc3ccc(Cl)cc3)C2)o[nH]1` (relative stereo) [Example 116, 5-(Trans-2-(4-chlorobenzyl)piperidin-4-yl)isoxazol-3(2H)-one], `O=c1cc([C@H]2CCN[C@@H](Cc3ccc(F)c(F)c3)C2)o[nH]1` [Example 120, 5-((2R,4S)-2-(3,4-Difluorobenzyl)piperidin-4-yl)isoxazol-3(2H)-one] is 6.3-fold lower in IC50: 5.6 µM for the first, 0.89 µM for the second. The second is the more potent here.

First: CC(C)(C)c1cc(C[C@@H]2C[C@H](c3cc(=O)[nH]o3)CCN2)cc(C(C)(C)C)c1 [Example 147, 5-((2S,4R)-2-(3,5-Di-tert-butylbenzyl)piperidin-4-yl)isoxazol-3(2H)-one]
Second: CC(C)(C)c1cc(C[C@H]2C[C@H](c3cc(=O)[nH]o3)CCN2)cc(C(C)(C)C)c1 (relative stereo) [Example 148, 5-(Trans-2-(3,5-di-tert-butylbenzyl)piperidin-4-yl)isoxazol-3(2H)-one]
The IC50 of the first is 17-fold higher: 44.6 µM for the first, 2.7 µM for the second.

First: O=c1cc([C@H]2CCN[C@@H](c3ccc(F)cc3)C2)o[nH]1 [Example 25, 5-((2R,4S)-2-(4-Fluorophenyl)piperidin-4-yl)isoxazol-3(2H)-one]
Second: O=c1cc([C@@H]2CCN[C@H](c3ccc(Cl)cc3)C2)o[nH]1 [Example 28, 5-((2S,4R)-2-(4-Chlorophenyl)piperidin-4-yl)isoxazol-3(2H)-one]
The IC50 of the first is 110-fold lower: 2.5 µM for the first, 283 µM for the second. The first is the more potent here.

Going from `O=c1cc([C@@H]2CCN[C@H](CCc3ccc(F)cc3)C2)o[nH]1` [Example 93, 5-((2R,4R)-2-(4-Fluorophenethyl)piperidin-4-yl)isoxazol-3(2H)-one] to `O=c1cc([C@H]2CCN[C@@H](Cc3c(F)cccc3F)C2)o[nH]1` [Example 127, 5-((2R,4S)-2-(2,6-Difluorobenzyl)piperidin-4-yl)isoxazol-3(2H)-one], the IC50 falls from 69.8 µM to 1.4 µM (50-fold).

Compared with `Cn1nnc([C@H]2C[C@H](c3cc(=O)[nH]o3)CCN2)n1` (relative stereo) [Example 82, 5-(Trans-2-(2-methyl-2H-tetrazol-5-yl)piperidin-4-yl)isoxazol-3(2H)-one], `O=c1cc([C@@H]2CCN[C@H](c3ccc(Cl)cc3Cl)C2)o[nH]1` [Example 52, 5-((2S,4R)-2-(2,4-Dichlorophenyl)piperidin-4-yl)isoxazol-3(2H)-one] is 96-fold higher in IC50: 20.3 µM for the first, 1940 µM for the second. The first is the more potent here.

Going from `O=c1cc([C@@H]2CCN[C@@H](Cc3cc(F)cc(C(F)(F)F)c3)C2)o[nH]1` (relative stereo) [Example 139, 5-(Trans-2-(3-fluoro-5-(trifluoromethyl)benzyl)piperidin-4-yl)isoxazol-3(2H)-one] to `O=c1cc([C@H]2CCN[C@H](c3cc(F)c(F)cc3F)C2)o[nH]1` [Example 64, 5-((2S,4S)-2-(2,4,5-Trifluorophenyl)piperidin-4-yl)isoxazol-3(2H)-one], the IC50 rises from 2.9 µM to 31.4 µM (11-fold).

With `O=c1cc([C@@H]2CCN[C@@H](c3cc(F)c(F)c(F)c3)C2)o[nH]1` (relative stereo) [Example 62, 5-(Trans-2-(3,4,5-trifluorophenyl)piperidin-4-yl)isoxazol-3(2H)-one] the IC50 was 7.1 µM.

Reference: US8415378B2, “Isoxazol-3(2H)-one analogs as therapeutic agents” (AstraZeneca AB, priority 2009, dated 2013)
